ChEMBL document CHEMBL3351785, “Discovery of nanomolar phosphoinositide 3-kinase gamma (PI3Kγ) inhibitors using ligand-based modeling and virtual screening followed by in vitro analysis” (Eur J Med Chem, 2014)
Non-standard residues stand in square brackets, D forms with d. Residues, ends and D or L forms follow the SMILES beside them. *: point of attachment. Cbz = O=C(OCc1ccccc1)*; Nva = CCC[CH](N)C(=O)O; Bn = c1ccc(C*)cc1

Assays:
[1] = biological target: T1, Phosphatidylinositol 4,5-bisphosphate 3-kinase catalytic subunit gamma isoform (Homo sapiens, UniProt P48736); assay: Inhibition of PI3Kgamma (unknown origin) assessed as decrease in fluorescence intensity using phosphorylated substrate
Target sequence in this assay (P48736 whole entry, canonical isoform): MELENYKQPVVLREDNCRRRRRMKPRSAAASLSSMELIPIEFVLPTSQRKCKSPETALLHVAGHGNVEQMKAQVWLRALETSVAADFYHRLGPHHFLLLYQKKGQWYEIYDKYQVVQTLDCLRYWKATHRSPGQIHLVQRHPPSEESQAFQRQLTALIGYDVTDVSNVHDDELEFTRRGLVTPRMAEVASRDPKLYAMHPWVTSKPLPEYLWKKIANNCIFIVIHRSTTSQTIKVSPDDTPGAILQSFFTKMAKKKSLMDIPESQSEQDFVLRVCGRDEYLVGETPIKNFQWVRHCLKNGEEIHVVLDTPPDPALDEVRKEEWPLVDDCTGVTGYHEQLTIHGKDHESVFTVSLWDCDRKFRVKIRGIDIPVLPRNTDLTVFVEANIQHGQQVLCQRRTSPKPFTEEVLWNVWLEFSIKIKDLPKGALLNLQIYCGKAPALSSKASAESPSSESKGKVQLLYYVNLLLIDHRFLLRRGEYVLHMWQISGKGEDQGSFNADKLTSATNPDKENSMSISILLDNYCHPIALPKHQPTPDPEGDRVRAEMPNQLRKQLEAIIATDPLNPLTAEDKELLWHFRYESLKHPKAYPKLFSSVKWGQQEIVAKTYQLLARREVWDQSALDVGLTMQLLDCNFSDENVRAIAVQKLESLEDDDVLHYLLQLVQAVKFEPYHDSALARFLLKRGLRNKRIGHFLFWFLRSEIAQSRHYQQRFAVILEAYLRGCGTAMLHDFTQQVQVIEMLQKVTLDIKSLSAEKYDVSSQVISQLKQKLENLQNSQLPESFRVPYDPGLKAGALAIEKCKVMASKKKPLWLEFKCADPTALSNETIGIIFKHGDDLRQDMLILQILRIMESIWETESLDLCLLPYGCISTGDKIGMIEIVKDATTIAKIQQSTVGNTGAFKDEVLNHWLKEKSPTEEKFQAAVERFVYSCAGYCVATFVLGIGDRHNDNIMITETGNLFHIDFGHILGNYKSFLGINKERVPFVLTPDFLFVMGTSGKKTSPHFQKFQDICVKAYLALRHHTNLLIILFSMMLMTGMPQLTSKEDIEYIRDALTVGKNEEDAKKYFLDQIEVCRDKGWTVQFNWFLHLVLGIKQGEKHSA

[2] = biological target: T1, Phosphatidylinositol 4,5-bisphosphate 3-kinase catalytic subunit gamma isoform; assay: Inhibition of PI3Kgamma (unknown origin) assessed as decrease in fluorescence intensity using phosphorylated substrate at 10 uM
Target sequence in this assay (P48736 whole entry, looked up, canonical isoform): as the sequence (P48736 whole entry, canonical isoform) above

| SMILES | IC50 [1] | inhibition [2] |
| --- | --- | --- |
| COc1ccccc1-c1ccc(/C=C2\SC(=O)NC2=O)o1 | 1000 nM | – |
| O=c1c2c(Cl)cccc2nc(CSc2ncnc3[nH]cnc23)n1-c1ccccc1F | 3630 nM | – |
| O=C1NC(=S)S/C1=C\c1ccc2c(c1)N(CCc1ccc(F)c(F)c1)C(=O)CO2 | 20.4 nM | – |
| Cc1ccccc1/N=N\c1ccc(/N=N/c2c(O)ccc3cc(S(=O)(=O)O)ccc23)c(C)c1 | – | 64% |
| O=C1NC(=S)S/C1=C\c1ccc2c(c1)N(CCc1ccc(Cl)c(Cl)c1)C(=O)CO2 | 18.4 nM | – |
| O=S(=O)(O)c1ccc(OCCCCCCCCCCOc2ccc(S(=O)(=O)O)cc2)cc1 | – | 11% |
| O=C(O)C(Nc1ccc(Oc2ccc(NC(C(=O)O)c3ccccc3)cc2)cc1)c1ccccc1 (stereo unspecified) | – | 57% |
| CCOc1ccc(Nc2ccc3c(O)cc(S(=O)(=O)O)cc3c2)cc1 | 992 nM | 72% |
| O=C(O)c1ccccc1SC(Sc1ccccc1C(=O)O)c1cccc(Cl)c1 | 187 nM | 88% |
| O=C(O)Cc1ccc(OCCCOc2ccc(CC(=O)O)cc2)cc1 | – | 24% |
| O=C1NC(=S)S/C1=C\c1ccc2c(c1)N(CCc1ccc(C(F)(F)F)cc1)C(=O)CO2 | 8.1 nM | – |
| O=c1c2ccccc2nc(CSc2ncnc3[nH]cnc23)n1-c1ccccc1Cl | 27900 nM | – |
| COc1ccc(C(CC(=O)c2ccc3c(c2)OCO3)C(=O)O)cc1OC (stereo unspecified) | 234 nM | 94% |
| Cc1cccc(CCN2C(=O)COc3ccc(/C=C4\SC(=S)NC4=O)cc32)c1 | 20.9 nM | – |
| O=C1NC(=S)S/C1=C\c1ccc2c(c1)N(CCc1ccc(Br)cc1)C(=O)CO2 | 9.9 nM | – |
| COc1ccc(CCN2C(=O)COc3ccc(/C=C4\SC(=S)NC4=O)cc32)cc1 | 27.7 nM | – |
| COc1cc2cc3c4cc(OC)c(OC)cc4cc[n+]3c(CCC(=O)O)c2cc1OC | 7330 nM | 57% |
| O=c1c2c(Cl)cccc2nc(CSc2ncnc3[nH]cnc23)n1-c1ccccc1-c1ccccc1 | 7620 nM | – |
| O=c1cc(N2CCOCC2)[nH]c2c(OCc3ccccc3)cccc12 | 10900 nM | – |
| Cc1ccccc1-n1c(CSc2ncnc3[nH]cnc23)nc2cccc(Cl)c2c1=O | 2540 nM | – |
| COc1cc(/N=N\c2ccc(S(=O)(=O)O)cc2)ccc1/N=N/c1c(O)ccc2cc(S(=O)(=O)O)ccc12 | – | 62% |

| SMILES | IC50 [1] | inhibition [2] |
| --- | --- | --- |
| Cc1cc2c(cc1C(=O)CCC(=O)O)CC1(C2)Cc2cc(C)c(C(=O)CCC(=O)O)cc2C1 | – | 67% |
| COc1cc(CCN2C(=O)COc3ccc(/C=C4\SC(=S)NC4=O)cc32)cc(OC)c1 | 11.8 nM | – |
| CC(C)(C)c1ccc(CCN2C(=O)COc3ccc(/C=C4\SC(=S)NC4=O)cc32)cc1 | 140 nM | – |
| Cc1cc(C(=O)O)c(C)cc1SSc1cc(C)c(C(=O)O)cc1C | 1460 nM | 83% |
| COc1cc(C[C@@H](CC(=O)c2ccc3c(c2)OCO3)C(=O)O)cc(OC)c1OC | 575 nM | 83% |
| COc1ccccc1-n1c(CSc2ncnc3[nH]cnc23)nc2cccc(C)c2c1=O | 1820 nM | – |
| O=C(O)CCC(=O)c1ccc(Oc2ccc(Cl)cc2)cc1 | – | 51% |
| CC(C)CC(NC(=O)OCc1ccccc1)C(=O)NC(Cc1ccc(O)cc1)C(=O)O (stereo not drawn) (Cbz-Leu-Tyr-OH; configuration not given here) | – | 57% |
| O=C(O)C[S+]([O-])c1ccc2c3c(cccc13)C(=O)c1ccccc1-2 (stereo unspecified) | 1570 nM | 67% |
| COc1ccccc1/N=N/c1c(O)ccc2cc(S(=O)(=O)O)ccc12 | – | 19% |
| O=C1NC(=S)S/C1=C\c1ccc2c(c1)N(CCc1cccc(Cl)c1)C(=O)CO2 | 18 nM | – |
| Cc1cccc2nc(CSc3ncnc4[nH]cnc34)n(-c3ccccc3Cl)c(=O)c12 | 6170 nM | – |
| Cc1ccc(CN2C(=O)COc3ccc(/C=C4\SC(=S)NC4=O)cc32)cc1 | 124 nM | – |
| Cc1ccc(CCN2C(=O)COc3ccc(/C=C4\SC(=S)NC4=O)cc32)cc1 | 37.3 nM | – |
| COC[C@H]1OC(=O)c2coc3c2[C@@]1(C)C1=C(C3=O)[C@@H]2CCC(=O)[C@@]2(C)C[C@H]1OC(C)=O | – | 100% |
| COc1cc(O)cc(/C=C2\SC(=S)NC2=O)c1 | 328 nM | – |
| O=C(CCCCn1cnc2c(SCc3ccccc3)ncnc21)Nc1ccc(C(=O)O)c(O)c1 | – | 37% |
| Cc1ccc(CN2C(=O)COc3ccc(/C=C4\SC(=S)NC4=O)cc32)cc1C | 11 nM | – |
| Cc1cccc(CN2C(=O)COc3ccc(/C=C4\SC(=S)NC4=O)cc32)c1 | 184 nM | – |
| O=C(NC(Cc1ccccc1)C(=O)NC(Cc1ccc(O)cc1)C(=O)O)OCc1ccccc1 (stereo not drawn) (Cbz-Phe-Tyr-OH; configuration not given here) | – | 34% |
| O=S(=O)(O)c1cc(O)c2ccc(Nc3ccc4c(O)cc(S(=O)(=O)O)cc4c3)cc2c1 | – | 31% |

| SMILES | IC50 [1] | inhibition [2] |
| --- | --- | --- |
| O=C1NC(=S)S/C1=C\c1ccc2c(c1)N(Cc1ccccc1)C(=O)CO2 | 97 nM | – |
| COc1cccc(CCN2C(=O)COc3ccc(/C=C4\SC(=S)NC4=O)cc32)c1 | 11.2 nM | – |
| Cc1cc(C)cc(CCN2C(=O)COc3ccc(/C=C4\SC(=S)NC4=O)cc32)c1 | 11.2 nM | – |
| O=c1cc(N2CCOCC2)[nH]c2c(Oc3ccc(F)cc3)cccc12 | 18100 nM | – |
| COc1ccc2cc(C(=O)CCCC(C)C(=O)O)ccc2c1 (stereo unspecified) | 5180 nM | 58% |
| O=c1c2ccccc2nc(CSc2ncnc3[nH]cnc23)n1N1CCOCC1 | 138000 nM | – |
| O=C1NC(=S)S/C1=C\c1ccc2c(c1)N(Cc1ccc(Cl)cc1)C(=O)CO2 | 30 nM | – |
| N#Cc1ccc(CN2C(=O)COc3ccc(/C=C4\SC(=S)NC4=O)cc32)cc1 | 152 nM | – |
| CSCCC(NCc1c(O)ccc2c(-c3ccccc3)cc(=O)oc12)C(=O)O (stereo unspecified) | – | 27% |
| CCCC(NC(=O)OCc1ccccc1)C(=O)NC(Cc1ccc(O)cc1)C(=O)O (stereo unspecified) (Cbz-[Nva]-Tyr-OH; configuration not given here) | – | 10% |
| O=C1NC(=S)S/C1=C\c1ccc(-c2cc([N+](=O)[O-])ccc2Br)o1 | 3600 nM | – |
| O=c1c2ccc(F)cc2nc(CSc2ncnc3[nH]cnc23)n1-c1ccccc1Cl | 145000 nM | – |
| CCCCOc1ccc(CCC(=O)O)cc1OCCCC | – | 20% |
| CCCCCCCCCCCCCCCC1=NN(c2ccc(S(=O)(=O)O)cc2)C(=O)C1/N=N/c1ccccc1 (stereo unspecified) | – | 92% |
| COc1ccccc1CNc1cc(C)cc2c(=O)cc(N3CCOCC3)[nH]c12 | 10700 nM | – |
| O=S(=O)(O)c1ccc(OCCCCCCCCOc2ccc(S(=O)(=O)O)cc2)cc1 | – | 83% |
| O=C(O)Cc1ccc(OCCCCCOc2ccc(CC(=O)O)cc2)cc1 | – | 7% |
| Cc1cc(F)ccc1Oc1cccc2c(=O)cc(N3CCOCC3)[nH]c12 | 18100 nM | – |
| COc1cc2cc(C(=O)O)[nH]c2cc1OCc1ccccc1 | 105 nM | 100% |
| COc1ccccc1/N=N/c1c(O)c(S(=O)(=O)O)cc2cc(S(=O)(=O)O)ccc12 | – | 76% |
| O=c1cc(N2CCOCC2)[nH]c2c(Oc3ccccc3F)cccc12 | 7260 nM | – |

| SMILES | IC50 [1] | inhibition [2] |
| --- | --- | --- |
| O=C(COc1ccc(Cl)cc1C(=O)O)Nc1cccc(NC(=O)Nc2cccc(S(=O)(=O)F)c2)c1 | 9160 nM | 51% |
| COc1cc(C(CC(=O)O)CC(=O)O)ccc1OCc1ccccc1 | 5880 nM | 57% |
| O=c1c2c(Cl)cccc2nc(CSc2ncnc3[nH]cnc23)n1-c1ccccc1Cl | 5450 nM | – |
| O=C(NC(Cc1ccc(OC(=O)OCc2ccccc2)cc1)C(=O)O)OCc1ccccc1 (stereo unspecified) | 324 nM | 79% |
| O=C(NC(CSCc1ccccc1)C(=O)NC(Cc1ccc(O)cc1)C(=O)O)OCc1ccccc1 (stereo unspecified) (Cbz-Cys(Bn)-Tyr-OH; configuration not given here) | – | 40% |
| CCOc1nc(OCC)c2[nH]c(C(=O)O)c(Br)c2n1 | – | 50% |
| CC(C)(C)c1ccc(CN2C(=O)COc3ccc(/C=C4\SC(=S)NC4=O)cc32)cc1 | 10.2 nM | – |
| CCCCn1c(CSc2ncnc3[nH]cnc23)nc2ccccc2c1=O | 218000 nM | – |
| CCN1C(=O)/C(=C\c2cc([N+](=O)[O-])ccc2OCC(=O)O)SC1=S | – | 81% |
| O=C1NC(=S)S/C1=C\c1ccc2c(c1)N(CCc1ccccc1)C(=O)CO2 | 103 nM | – |
| O=S(=O)(O)c1ccc2c(/N=N/c3ccccc3Cl)c(O)ccc2c1 | – | 76% |
| COc1ccc(C(CC(=O)O)c2cc(OC)c(OC)c(OC)c2)cc1OC (stereo unspecified) | 6070 nM | 58% |
| O=C1NC(=S)S/C1=C\c1ccc2c(c1)N(CCc1ccc(Cl)cc1Cl)C(=O)CO2 | 18.1 nM | – |
| O=c1cc(N2CCOCC2)[nH]c2c(Cc3ccccc3)cccc12 | 10900 nM | – |
| O=C1NC(=S)S/C1=C\c1ccc2c(c1)N(CCc1ccc(Cl)cc1)C(=O)CO2 | 20.1 nM | – |
| O=C1NC(=S)S/C1=C\c1ccc2c(c1)N(Cc1ccc(C(F)(F)F)cc1)C(=O)CO2 | 116 nM | – |
| O=C(NC(Cc1ccc(O)cc1)C(=O)O)C(=O)c1c[nH]c2ccc([N+](=O)[O-])cc12 (stereo unspecified) | – | 34% |
| CCCCOc1ccc(C(CC(=O)O)CC(=O)O)cc1OC | 134 nM | 98% |
| O=c1c2c(F)cccc2nc(CSc2ncnc3[nH]cnc23)n1-c1ccccc1Cl | 13100 nM | – |
